According to US11039614B2, “Solid herbicide compositions containing fluroxypyr-meptyl” (Dow AgroSciences LLC, priority 2015, dated 2021):

Tests used:
[1] = Differential scanning calorimetry (DSC), degree of crystallinity; type: physicochemical
From the text: The coated herbicide powder and the water dispersible granule compositions described herein include coated, solid particles of fluroxypyr-meptyl that are largely or nearly completely in crystalline form. The degree of crystallinity of the solid particles of fluroxypyr-meptyl in these compositions (i.e., the weight percent of the fluroxypyr-meptyl that is in crystalline form) can be determined by differential scanning calorimetry (DSC) analysis and comparing the thermal properties of these compositions to a crystalline, non-coated sample of fluroxypyr-meptyl. In some embodiments, the coated particles of fluroxypyr-meptyl in these compositions have a degree of crystallinity that is at least about 70%, at least about 80%, at least about 90%, at least about 91%, at least about 92%, at least about 93%, at least about 94%, at least about 95%, at least about 96%, at least about 97%, at least about 98%, or at least about 99% and is reached within about one day, within about 2 days, within about 3 days, within about 4 days, within about 5 days, within about 6 days, or within about 7 days from the time of preparation of these solid compositions. […]

[2] = cited from earlier work

## CCCCCCC(C)OC(=O)COc1nc(F)c(Cl)c(N)c1Cl (centres unmarked) [Fluroxypyr-meptyl, 2-methylheptyl ester of 4-amino-3,5-dichloro-6-fluoro-2-pyridyloxyacetic acid]
[1]
  DSC Thermal Data: Heat Flow (absorbed): 70.01 J/g
[2]
  solubility in water: < 1 ppm
